{
  "source": "patent US20130005747A1",
  "about": "“METHOD FOR SELECTING A CANCER THERAPY” (Cyclacel Limited, priority 2010, published 2013)",
  "key": {"1A6": {"test_system": "1A6", "test": "Fractional growth, 72 h seliciclib", "type": "cell-based, human", "details": "1A6 (Bladder), 15 μM seliciclib", "text": "(§1) A total of 270 human cancer cell lines from diverse cancer histopathologic types were investigated."}, "639-V": {"test_system": "639-V", "test": "Fractional growth, 72 h seliciclib", "type": "cell-based, human", "details": "639-V (Bladder), 15 μM seliciclib", "text": "as §1"}, "A549": {"test_system": "A549", "test": "Fractional growth, 72 h seliciclib", "type": "cell-based, human", "details": "A549 (Lung: NSCLC), 15 μM seliciclib", "text": "as §1"}, "BFTC-909": {"test_system": "BFTC-909", "test": "Fractional growth, 72 h seliciclib", "type": "cell-based, human", "details": "BFTC-909 (Kidney), 15 μM seliciclib", "text": "as §1"}, "BxPC-3": {"test_system": "BxPC-3", "test": "Fractional growth, 72 h seliciclib", "type": "cell-based, human", "details": "BxPC-3 (Pancreas), 15 μM seliciclib", "text": "as §1"}, "Ca9-22": {"test_system": "Ca9-22", "test": "Fractional growth, 72 h seliciclib", "type": "cell-based, human", "details": "Ca9-22 (Head & Neck), 15 μM seliciclib", "text": "as §1"}, "DAN-G": {"test_system": "DAN-G", "test": "Fractional growth, 72 h seliciclib", "type": "cell-based, human", "details": "DAN-G (Pancreas), 15 μM seliciclib", "text": "as §1"}, "G-292 Clone A141B1": {"test_system": "G-292 Clone A141B1", "test": "Fractional growth, 72 h seliciclib", "type": "cell-based, human", "details": "G-292 Clone A141B1 (Bone), 15 μM seliciclib", "text": "as §1"}, "GAMG": {"test_system": "GAMG", "test": "Fractional growth, 72 h seliciclib", "type": "cell-based, human", "details": "GAMG (Brain), 15 μM seliciclib", "text": "as §1"}, "H4": {"test_system": "H4", "test": "Fractional growth, 72 h seliciclib", "type": "cell-based, human", "details": "H4 (Brain), 15 μM seliciclib", "text": "as §1"}, "HT 1376": {"test_system": "HT 1376", "test": "Fractional growth, 72 h seliciclib", "type": "cell-based, human", "details": "HT 1376 (Bladder), 15 μM seliciclib", "text": "as §1"}, "HT115": {"test_system": "HT115", "test": "Fractional growth, 72 h seliciclib", "type": "cell-based, human", "details": "HT115 (Intestine), 15 μM seliciclib", "text": "as §1"}, "HuH-7": {"test_system": "HuH-7", "test": "Fractional growth, 72 h seliciclib", "type": "cell-based, human", "details": "HuH-7 (Liver), 15 μM seliciclib", "text": "as §1"}, "KATO III": {"test_system": "KATO III", "test": "Fractional growth, 72 h seliciclib", "type": "cell-based, human", "details": "KATO III (Stomach), 15 μM seliciclib", "text": "as §1"}, "LU99B": {"test_system": "LU99B", "test": "Fractional growth, 72 h seliciclib", "type": "cell-based, human", "details": "LU99B (Lung: NSCLC), 15 μM seliciclib", "text": "as §1"}, "LU99C": {"test_system": "LU99C", "test": "Fractional growth, 72 h seliciclib", "type": "cell-based, human", "details": "LU99C (Lung: NSCLC), 15 μM seliciclib", "text": "as §1"}, "LUDLU-1": {"test_system": "LUDLU-1", "test": "Fractional growth, 72 h seliciclib", "type": "cell-based, human", "details": "LUDLU-1 (Lung: NSCLC), 15 μM seliciclib", "text": "as §1"}, "MEL-JUSO": {"test_system": "MEL-JUSO", "test": "Fractional growth, 72 h seliciclib", "type": "cell-based, human", "details": "MEL-JUSO (Skin), 15 μM seliciclib", "text": "as §1"}, "NAE": {"test_system": "NAE", "test": "Fractional growth, 72 h seliciclib", "type": "cell-based, human", "details": "NAE (Skin), 15 μM seliciclib", "text": "as §1"}, "NCI-H2023": {"test_system": "NCI-H2023", "test": "Fractional growth, 72 h seliciclib", "type": "cell-based, human", "details": "NCI-H2023 (Lung: NSCLC), 15 μM seliciclib", "text": "as §1"}, "NCI-H2228": {"test_system": "NCI-H2228", "test": "Fractional growth, 72 h seliciclib", "type": "cell-based, human", "details": "NCI-H2228 (Lung: NSCLC), 15 μM seliciclib", "text": "as §1"}, "NCI-H2347": {"test_system": "NCI-H2347", "test": "Fractional growth, 72 h seliciclib", "type": "cell-based, human", "details": "NCI-H2347 (Lung: NSCLC), 15 μM seliciclib", "text": "as §1"}, "NCI-H522": {"test_system": "NCI-H522", "test": "Fractional growth, 72 h seliciclib", "type": "cell-based, human", "details": "NCI-H522 (Lung: NSCLC), 15 μM seliciclib", "text": "as §1"}, "NH-6": {"test_system": "NH-6", "test": "Fractional growth, 72 h seliciclib", "type": "cell-based, human", "details": "NH-6 (Kidney), 15 μM seliciclib", "text": "as §1"}, "RCM-1": {"test_system": "RCM-1", "test": "Fractional growth, 72 h seliciclib", "type": "cell-based, human", "details": "RCM-1 (Intestine), 15 μM seliciclib", "text": "as §1"}, "SW756": {"test_system": "SW756", "test": "Fractional growth, 72 h seliciclib", "type": "cell-based, human", "details": "SW756 (Cervix), 15 μM seliciclib", "text": "as §1"}, "TCCSUP": {"test_system": "TCCSUP", "test": "Fractional growth, 72 h seliciclib", "type": "cell-based, human", "details": "TCCSUP (Bladder), 15 μM seliciclib", "text": "as §1"}, "U-2 OS": {"test_system": "U-2 OS", "test": "Fractional growth, 72 h seliciclib", "type": "cell-based, human", "details": "U-2 OS (Bone), 15 μM seliciclib", "text": "as §1"}, "VMRC-RCZ": {"test_system": "VMRC-RCZ", "test": "Fractional growth, 72 h seliciclib", "type": "cell-based, human", "details": "VMRC-RCZ (Kidney), 15 μM seliciclib", "text": "as §1"}, "WM-115": {"test_system": "WM-115", "test": "Fractional growth, 72 h seliciclib", "type": "cell-based, human", "details": "WM-115 (Skin), 15 μM seliciclib", "text": "as §1"}, "[1]": {"test_system": "H-23 human lung cancer cell line", "test": "Growth inhibition of lung cancer cells (FIG. 6)", "type": "cell-based", "details": "for growth inhibition / sensitivity (in words): 72 hours post-treatments", "text": "(§2) Thus, findings from this large panel of cancer cell lines indicated significant roscovitine sensitivity well beyond those human and murine lung cancer cells already investigated. For lung cancer cells, this response is tightly associated with the presence of ras activation in highly responsive cells."}, "[2]": {"test_system": "H-522 human lung cancer cell line", "test": "Growth inhibition of lung cancer cells (FIG. 6)", "type": "cell-based", "details": "for growth inhibition / sensitivity (in words): 72 hours post-treatments, wild-type ras", "text": "as §2"}, "[3]": {"test_system": "HOP-62 human lung cancer cell line", "test": "Growth inhibition of lung cancer cells (FIG. 6)", "type": "cell-based", "details": "for growth inhibition / sensitivity (in words): 72 hours post-treatments", "text": "as §2"}, "[4]": {"test_system": "nasopharyngeal cancer (NPC)", "details": "Phase I, patients with nasopharyngeal cancer; cited from earlier work"}, "[5]": {"details": "seliciclib combined with docetaxel"}, "[6]": {"details": "seliciclib combined with paclitaxel"}},
  "data": [
    {"smiles": "CC[C@H](CO)Nc1nc(NCc2ccccc2)c2ncn(C(C)C)c2n1", "note": "[seliciclib, roscovitine]", "values": [
      {"measurement": "Fractional Growth", "setting": "1A6", "result": 0.6475},
      {"measurement": "Fractional Growth", "setting": "639-V", "result": 0.4196},
      {"measurement": "Fractional Growth", "setting": "A549", "result": 0.1925},
      {"measurement": "Fractional Growth", "setting": "BFTC-909", "result": 0.7132},
      {"measurement": "Fractional Growth", "setting": "BxPC-3", "result": 0.671},
      {"measurement": "Fractional Growth", "setting": "Ca9-22", "result": 0.4623},
      {"measurement": "Fractional Growth", "setting": "DAN-G", "result": 0.6841},
      {"measurement": "Fractional Growth", "setting": "G-292 Clone A141B1", "result": 0.6393},
      {"measurement": "Fractional Growth", "setting": "GAMG", "result": 0.571},
      {"measurement": "Fractional Growth", "setting": "H4", "result": 0.9708},
      {"measurement": "Fractional Growth", "setting": "HT 1376", "result": 0.6897},
      {"measurement": "Fractional Growth", "setting": "HT115", "result": 0.4837},
      {"measurement": "Fractional Growth", "setting": "HuH-7", "result": 0.3911},
      {"measurement": "Fractional Growth", "setting": "KATO III", "result": 0.4299},
      {"measurement": "Fractional Growth", "setting": "LU99B", "result": 0.2318},
      {"measurement": "Fractional Growth", "setting": "LU99C", "result": 0.3864},
      {"measurement": "Fractional Growth", "setting": "LUDLU-1", "result": 0.7029},
      {"measurement": "Fractional Growth", "setting": "MEL-JUSO", "result": 0.4945},
      {"measurement": "Fractional Growth", "setting": "NAE", "result": 0.3413},
      {"measurement": "Fractional Growth", "setting": "NCI-H2023", "result": 0.4148},
      {"measurement": "Fractional Growth", "setting": "NCI-H2228", "result": 0.6493},
      {"measurement": "Fractional Growth", "setting": "NCI-H2347", "result": 0.3299},
      {"measurement": "Fractional Growth", "setting": "NCI-H522", "result": 0.6262},
      {"measurement": "Fractional Growth", "setting": "NH-6", "result": 0.5218},
      {"measurement": "Fractional Growth", "setting": "RCM-1", "result": 0.6689},
      {"measurement": "Fractional Growth", "setting": "SW756", "result": 0.6484},
      {"measurement": "Fractional Growth", "setting": "TCCSUP", "result": 0.6407},
      {"measurement": "Fractional Growth", "setting": "U-2 OS", "result": 0.5686},
      {"measurement": "Fractional Growth", "setting": "VMRC-RCZ", "result": 0.5994},
      {"measurement": "Fractional Growth", "setting": "WM-115", "result": 0.5068},
      {"measurement": "growth inhibition / sensitivity (in words)", "setting": "[1]; listed as Seliciclib", "result": "dose-dependent growth inhibition"},
      {"measurement": "growth inhibition / sensitivity (in words)", "setting": "[1]; listed as roscovitine", "result": "more sensitive to roscovitine that H-522 lung cancer cells"},
      {"measurement": "proliferation, combined treatment (in words)", "setting": "[1]; [5]", "result": "cooperatively inhibited proliferation"},
      {"measurement": "proliferation, combined treatment (in words)", "setting": "[1]; [6]", "result": "cooperatively inhibited proliferation"},
      {"measurement": "growth inhibition / sensitivity (in words)", "setting": "[2]; listed as Seliciclib", "result": "dose-dependent growth inhibition"},
      {"measurement": "growth inhibition / sensitivity (in words)", "setting": "[2]; listed as roscovitine", "result": "less sensitive than others examined"},
      {"measurement": "proliferation, combined treatment (in words)", "setting": "[2]; [5]", "result": "cooperatively inhibited proliferation"},
      {"measurement": "proliferation, combined treatment (in words)", "setting": "[2]; [6]", "result": "cooperatively inhibited proliferation"},
      {"measurement": "growth inhibition / sensitivity (in words)", "setting": "[3]; listed as Seliciclib", "result": "dose-dependent growth inhibition"},
      {"measurement": "growth inhibition / sensitivity (in words)", "setting": "[3]; listed as roscovitine", "result": "more sensitive to roscovitine that H-522 lung cancer cells"},
      {"measurement": "proliferation, combined treatment (in words)", "setting": "[3]; [5]", "result": "cooperatively inhibited proliferation"},
      {"measurement": "proliferation, combined treatment (in words)", "setting": "[3]; [6]", "result": "cooperatively inhibited proliferation"},
      {"measurement": "copy counts of the EBV virus", "setting": "[4]", "result": "concomitant reduction in copy counts of the EBV virus"},
      {"measurement": "tumor response", "setting": "[4]", "result": "evidence of tumor shrinkage"}
    ]}
  ]
}
